Data set [1] has as its target Vascular endothelial growth factor receptor 1 (Homo sapiens, UniProt P17948).
A short description of another data set: cells. It counts as functional, LX2. As to conditions: Homo sapiens, LX-2, 72 h; time hrs <=72.
Data set [2] can be described thus: in vitro. The following applies: dog, MDCK.
Description: Permeability of compound across apical to basolateral side in MDCK cells at 10 uM
Data set [3] in a line: in vitro. The following applies: human, microsomes.
Description: Metabolic stability in human liver microsomes assessed as parent compound remaining at 10 uM measured after 30 mins relative to control
Data set [4] can be described thus: in vitro. The following applies: rat, microsomes.
Description: Metabolic stability in rat liver microsomes assessed as parent compound remaining at 10 uM measured after 30 mins relative to control
A short description of data set [5]: in vitro. As to conditions: mouse, microsomes.
Description: Metabolic stability in mouse liver microsomes assessed as parent compound remaining at 10 uM measured after 30 mins relative to control
The next data set addresses CYP3A4 (Homo sapiens, UniProt P08684). The data set can be described thus: in vitro.
The next data set has as its target CYP2D6 (Homo sapiens, UniProt P10635). The data set can be described thus: in vitro.
Another data set has as its target CYP2C9 (Homo sapiens, UniProt P11712). The data set can be described thus: in vitro.
The target in another data set is CYP2C19 (Homo sapiens, UniProt P33261). Briefly: in vitro.
Sequence of CYP2C19 (P33261 whole entry): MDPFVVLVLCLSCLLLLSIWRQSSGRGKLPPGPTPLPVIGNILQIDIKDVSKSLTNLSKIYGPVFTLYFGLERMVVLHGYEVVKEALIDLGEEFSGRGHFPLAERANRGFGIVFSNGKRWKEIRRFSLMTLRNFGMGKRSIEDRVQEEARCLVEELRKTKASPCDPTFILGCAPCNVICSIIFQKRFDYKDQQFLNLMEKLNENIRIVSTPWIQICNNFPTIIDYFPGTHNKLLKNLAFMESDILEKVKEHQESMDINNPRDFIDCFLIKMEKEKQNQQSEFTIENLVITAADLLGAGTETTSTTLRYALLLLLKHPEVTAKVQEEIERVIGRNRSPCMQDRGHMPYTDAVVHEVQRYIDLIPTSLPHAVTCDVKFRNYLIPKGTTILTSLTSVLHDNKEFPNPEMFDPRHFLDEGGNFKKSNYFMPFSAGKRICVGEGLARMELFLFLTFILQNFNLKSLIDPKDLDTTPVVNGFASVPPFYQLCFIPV
Another data set concerns the target T1, CYP1A2 (Homo sapiens, UniProt P05177).
T1 sequence (P05177 whole entry): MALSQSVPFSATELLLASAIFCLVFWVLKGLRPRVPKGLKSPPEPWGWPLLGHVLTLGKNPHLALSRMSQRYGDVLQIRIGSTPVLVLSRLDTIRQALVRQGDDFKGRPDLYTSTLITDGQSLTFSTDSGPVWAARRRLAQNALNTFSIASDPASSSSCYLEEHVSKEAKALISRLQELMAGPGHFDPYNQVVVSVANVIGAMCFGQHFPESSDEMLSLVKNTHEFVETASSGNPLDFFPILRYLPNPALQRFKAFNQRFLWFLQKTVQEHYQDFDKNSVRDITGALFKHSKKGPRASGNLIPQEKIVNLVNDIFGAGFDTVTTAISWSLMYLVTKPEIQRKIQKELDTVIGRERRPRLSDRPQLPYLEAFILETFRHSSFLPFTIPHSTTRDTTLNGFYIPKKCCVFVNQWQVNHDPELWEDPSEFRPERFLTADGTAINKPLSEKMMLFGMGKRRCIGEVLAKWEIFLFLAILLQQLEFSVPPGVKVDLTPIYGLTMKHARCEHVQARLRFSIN
Briefly: in vitro.

Data set [6] in a line: in vitro. The following applies: human, plasma.
Description: Stability in human plasma assessed as compound remaining at 2 uM measured after 2 hrs relative to control
The nature of data set [7]: in vitro. The following applies: rat, plasma.
Description: Stability in rat plasma assessed as compound remaining at 2 uM measured after 2 hrs relative to control
Data set [8] is described as follows: in vitro. The following applies: dog, MDCK. This is another data set of the same source.
Description: Permeability of compound across basolateral to apical side in MDCK cells at 10 uM
The nature of data set [9]: in vitro. The following applies: human, lx2.
The target of data set [10] is T2, Tyrosine-protein kinase JAK1 (Homo sapiens, UniProt P23458). As to conditions: BaF3.
T2 sequence (P23458 whole entry): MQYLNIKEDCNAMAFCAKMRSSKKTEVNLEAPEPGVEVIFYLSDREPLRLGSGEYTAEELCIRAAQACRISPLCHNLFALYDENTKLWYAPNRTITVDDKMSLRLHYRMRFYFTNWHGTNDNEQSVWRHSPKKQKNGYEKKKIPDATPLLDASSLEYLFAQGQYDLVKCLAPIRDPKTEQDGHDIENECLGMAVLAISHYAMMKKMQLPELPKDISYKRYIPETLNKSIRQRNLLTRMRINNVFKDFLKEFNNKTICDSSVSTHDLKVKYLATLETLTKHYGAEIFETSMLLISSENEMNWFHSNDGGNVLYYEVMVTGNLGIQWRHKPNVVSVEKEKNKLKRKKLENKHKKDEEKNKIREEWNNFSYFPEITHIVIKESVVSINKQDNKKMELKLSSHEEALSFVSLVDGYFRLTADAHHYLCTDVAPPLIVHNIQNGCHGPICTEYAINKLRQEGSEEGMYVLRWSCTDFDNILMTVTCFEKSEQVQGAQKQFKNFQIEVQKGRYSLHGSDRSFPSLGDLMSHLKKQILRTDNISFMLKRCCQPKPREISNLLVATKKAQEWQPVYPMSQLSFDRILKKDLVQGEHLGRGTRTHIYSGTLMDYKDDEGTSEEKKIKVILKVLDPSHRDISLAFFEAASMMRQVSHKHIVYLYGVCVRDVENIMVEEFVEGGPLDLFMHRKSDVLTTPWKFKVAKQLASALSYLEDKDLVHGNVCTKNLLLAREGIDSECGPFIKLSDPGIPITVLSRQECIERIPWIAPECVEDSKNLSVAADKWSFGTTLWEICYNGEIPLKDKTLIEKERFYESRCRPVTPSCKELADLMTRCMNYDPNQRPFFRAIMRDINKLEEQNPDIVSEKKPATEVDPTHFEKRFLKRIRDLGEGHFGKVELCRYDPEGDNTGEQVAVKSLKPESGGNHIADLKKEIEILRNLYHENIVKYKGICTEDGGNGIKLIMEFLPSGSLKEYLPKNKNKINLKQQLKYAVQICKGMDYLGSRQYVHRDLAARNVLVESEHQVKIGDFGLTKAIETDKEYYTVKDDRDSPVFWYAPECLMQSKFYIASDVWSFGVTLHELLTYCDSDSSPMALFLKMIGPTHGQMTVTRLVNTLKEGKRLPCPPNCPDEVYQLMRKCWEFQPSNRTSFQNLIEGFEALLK
Description: Inhibition of JAK1 (unknown origin) transfected in mouse BAF3 cells assessed as cell growth inhibition incubated for 72 hrs by CCK8 assay
Data set [11] has as its target T3, Tyrosine-protein kinase JAK3 (Homo sapiens) (UniProt P52333).
T3 sequence (whole entry): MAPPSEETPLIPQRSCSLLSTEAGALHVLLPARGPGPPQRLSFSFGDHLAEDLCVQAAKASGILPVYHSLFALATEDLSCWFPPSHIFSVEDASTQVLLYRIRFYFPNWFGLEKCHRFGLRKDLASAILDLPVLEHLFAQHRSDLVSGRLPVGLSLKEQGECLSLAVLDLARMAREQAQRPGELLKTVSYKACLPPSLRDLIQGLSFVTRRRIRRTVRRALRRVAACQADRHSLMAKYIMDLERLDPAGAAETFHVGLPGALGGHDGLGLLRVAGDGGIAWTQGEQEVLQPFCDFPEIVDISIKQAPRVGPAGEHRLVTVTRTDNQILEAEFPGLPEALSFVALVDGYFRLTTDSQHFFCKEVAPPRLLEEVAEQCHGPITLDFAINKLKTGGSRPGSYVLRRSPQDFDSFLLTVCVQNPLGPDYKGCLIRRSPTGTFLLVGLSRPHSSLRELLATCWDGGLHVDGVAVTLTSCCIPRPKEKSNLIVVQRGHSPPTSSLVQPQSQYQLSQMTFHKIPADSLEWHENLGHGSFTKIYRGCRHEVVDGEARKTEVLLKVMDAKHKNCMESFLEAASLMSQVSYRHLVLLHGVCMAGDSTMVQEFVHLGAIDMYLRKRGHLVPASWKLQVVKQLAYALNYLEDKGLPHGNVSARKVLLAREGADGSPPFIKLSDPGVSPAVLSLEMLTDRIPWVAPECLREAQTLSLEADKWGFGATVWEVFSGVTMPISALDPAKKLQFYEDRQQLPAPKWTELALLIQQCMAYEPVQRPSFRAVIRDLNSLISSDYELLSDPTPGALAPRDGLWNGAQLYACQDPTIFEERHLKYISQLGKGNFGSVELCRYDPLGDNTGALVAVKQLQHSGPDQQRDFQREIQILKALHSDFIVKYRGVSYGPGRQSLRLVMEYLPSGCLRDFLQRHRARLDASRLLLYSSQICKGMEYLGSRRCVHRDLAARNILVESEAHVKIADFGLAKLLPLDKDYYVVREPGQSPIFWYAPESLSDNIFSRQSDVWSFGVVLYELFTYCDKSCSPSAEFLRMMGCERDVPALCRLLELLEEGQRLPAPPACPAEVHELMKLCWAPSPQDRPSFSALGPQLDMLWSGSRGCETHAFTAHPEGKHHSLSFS
The following applies: BaF3.
Description: Inhibition of JAK3 (unknown origin) transfected in mouse BAF3 cells assessed as cell growth inhibition incubated for 72 hrs by CCK8 assay

Data set [12] has as its target T4, Non-receptor tyrosine-protein kinase TYK2 (Homo sapiens, UniProt P29597). The following applies: BaF3.
Description: Inhibition of TYK2 (unknown origin) transfected in mouse BAF3 cells assessed as cell growth inhibition incubated for 72 hrs by CCK8 assay
In data set [13] the test system is LX2. The following applies: Homo sapiens, dose lower […], dose upper 500.0 nM.
The test system of data set [14] is LX2. The following applies: Homo sapiens, dose 500.0 nM.
The test system of data set [15] is LX2. As to conditions: Homo sapiens, dose 500.0 nM. The source holds these as a separate data set.
Data set [16] has as its system LX2. The following applies: Homo sapiens, dose 500.0 nM. This is another data set of the same source.
For data set [17], the target named is T2, Tyrosine-protein kinase JAK1.
Description: Inhibition of recombinant JAK1 (unknown origin) using GFP-STAT1 as substrate incubated for 1 hr followed by anti-pSTAT1 antibody addition and measured after 30 mins by Lanthascreen TR-FRET assay
In data set [18] the target is T4, Non-receptor tyrosine-protein kinase TYK2.
Description: Inhibition of recombinant TYK2 (unknown origin) using GFP-STAT1 as substrate incubated for 1 hr followed by anti-pSTAT1 antibody addition and measured after 30 mins by Lanthascreen TR-FRET assay
The target of data set [19] is T5, Tyrosine-protein kinase JAK2 (Homo sapiens, UniProt O60674).
T5 sequence (O60674 whole entry): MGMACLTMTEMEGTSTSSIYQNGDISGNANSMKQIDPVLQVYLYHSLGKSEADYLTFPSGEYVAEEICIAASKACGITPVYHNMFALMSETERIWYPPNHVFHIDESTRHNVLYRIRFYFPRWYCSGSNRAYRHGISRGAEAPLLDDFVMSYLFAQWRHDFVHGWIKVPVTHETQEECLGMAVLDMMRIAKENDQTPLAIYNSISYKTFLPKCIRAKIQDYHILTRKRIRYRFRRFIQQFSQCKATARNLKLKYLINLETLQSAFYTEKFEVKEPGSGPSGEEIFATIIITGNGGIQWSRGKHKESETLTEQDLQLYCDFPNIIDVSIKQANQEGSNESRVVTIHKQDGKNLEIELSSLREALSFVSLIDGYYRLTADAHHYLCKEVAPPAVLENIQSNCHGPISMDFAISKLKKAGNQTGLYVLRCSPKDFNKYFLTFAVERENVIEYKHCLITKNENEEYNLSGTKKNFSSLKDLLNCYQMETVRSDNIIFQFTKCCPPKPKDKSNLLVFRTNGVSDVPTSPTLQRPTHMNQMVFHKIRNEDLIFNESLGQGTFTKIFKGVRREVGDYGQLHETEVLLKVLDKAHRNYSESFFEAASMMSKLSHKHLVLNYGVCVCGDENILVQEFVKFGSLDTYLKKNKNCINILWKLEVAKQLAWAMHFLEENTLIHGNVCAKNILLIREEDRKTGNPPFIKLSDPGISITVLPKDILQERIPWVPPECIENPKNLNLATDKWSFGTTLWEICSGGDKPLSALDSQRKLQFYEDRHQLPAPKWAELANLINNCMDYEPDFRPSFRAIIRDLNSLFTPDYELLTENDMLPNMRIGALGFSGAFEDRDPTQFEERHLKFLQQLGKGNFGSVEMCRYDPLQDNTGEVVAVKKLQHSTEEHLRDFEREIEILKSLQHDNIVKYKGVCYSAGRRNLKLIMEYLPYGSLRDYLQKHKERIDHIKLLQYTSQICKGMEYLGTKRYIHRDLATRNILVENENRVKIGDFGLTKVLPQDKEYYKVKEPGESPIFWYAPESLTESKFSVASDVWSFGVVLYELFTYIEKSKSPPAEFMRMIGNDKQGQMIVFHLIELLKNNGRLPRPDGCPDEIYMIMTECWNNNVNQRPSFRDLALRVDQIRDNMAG
Description: Inhibition of recombinant JAK2 (unknown origin) using GFP-STAT1 as substrate incubated for 1 hr followed by anti-pSTAT1 antibody addition and measured after 30 mins by Lanthascreen TR-FRET assay
In data set [20] the target is T5, Tyrosine-protein kinase JAK2. As to conditions: BaF3.
Description: Inhibition of JAK2 (unknown origin) transfected in mouse BAF3 cells assessed as cell growth inhibition incubated for 72 hrs by CCK8 assay

SMILES strings stand for the structures. Calls of active or inactive are those of the source. No cut-off for these calls is given here. Bounds are passed on as bounds.

In general, IC50 refers to the concentration that gives 50% inhibition. A lower IC50 goes with higher potency. The GI50 is the concentration giving 50% growth inhibition. Higher therefore signals lower sensitivity of the cells. The Papp A→B is how fast a substance crosses the layer from the apical side. Higher therefore signals ready permeation. One may read the share remaining as the share of the starting amount still present when the sample was taken. Read a high share remaining as less turnover. The term inhibition denotes the drop in the measured response relative to a control, in per cent. As usually defined, the Papp B→A is the apparent permeability from the basolateral to the apical side of a cell layer.

T4 sequence (P29597 whole entry): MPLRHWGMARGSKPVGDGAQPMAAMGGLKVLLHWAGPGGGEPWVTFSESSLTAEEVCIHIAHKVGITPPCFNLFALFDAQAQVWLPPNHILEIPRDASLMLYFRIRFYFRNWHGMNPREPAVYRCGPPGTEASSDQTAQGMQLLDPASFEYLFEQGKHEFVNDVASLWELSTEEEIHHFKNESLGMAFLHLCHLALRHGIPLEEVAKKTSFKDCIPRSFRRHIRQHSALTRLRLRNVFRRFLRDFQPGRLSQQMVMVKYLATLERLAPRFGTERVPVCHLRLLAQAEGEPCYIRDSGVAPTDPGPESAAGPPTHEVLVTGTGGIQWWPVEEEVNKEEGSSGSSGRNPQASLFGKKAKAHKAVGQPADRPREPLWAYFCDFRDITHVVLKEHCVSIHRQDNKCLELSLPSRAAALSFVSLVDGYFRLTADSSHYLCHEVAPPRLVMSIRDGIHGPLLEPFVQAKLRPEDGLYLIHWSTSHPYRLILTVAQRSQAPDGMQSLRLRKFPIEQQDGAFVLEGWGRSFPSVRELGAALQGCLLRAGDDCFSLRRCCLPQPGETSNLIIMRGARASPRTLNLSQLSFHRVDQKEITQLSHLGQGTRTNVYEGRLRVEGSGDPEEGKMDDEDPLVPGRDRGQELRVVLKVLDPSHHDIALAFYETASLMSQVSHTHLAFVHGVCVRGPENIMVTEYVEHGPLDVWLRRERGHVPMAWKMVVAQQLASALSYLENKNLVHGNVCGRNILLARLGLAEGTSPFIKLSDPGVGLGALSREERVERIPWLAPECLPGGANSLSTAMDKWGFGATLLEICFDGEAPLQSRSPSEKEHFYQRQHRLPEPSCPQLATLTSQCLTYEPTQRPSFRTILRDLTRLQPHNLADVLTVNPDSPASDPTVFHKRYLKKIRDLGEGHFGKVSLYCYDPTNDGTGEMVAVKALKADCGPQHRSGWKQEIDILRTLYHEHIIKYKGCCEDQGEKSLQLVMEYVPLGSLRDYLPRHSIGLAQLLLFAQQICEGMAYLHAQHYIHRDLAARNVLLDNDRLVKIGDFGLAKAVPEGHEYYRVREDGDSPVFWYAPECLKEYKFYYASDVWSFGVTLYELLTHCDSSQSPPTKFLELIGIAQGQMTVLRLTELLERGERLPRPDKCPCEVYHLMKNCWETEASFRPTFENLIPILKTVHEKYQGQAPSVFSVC
Sequence of CYP2C9 (P11712 whole entry): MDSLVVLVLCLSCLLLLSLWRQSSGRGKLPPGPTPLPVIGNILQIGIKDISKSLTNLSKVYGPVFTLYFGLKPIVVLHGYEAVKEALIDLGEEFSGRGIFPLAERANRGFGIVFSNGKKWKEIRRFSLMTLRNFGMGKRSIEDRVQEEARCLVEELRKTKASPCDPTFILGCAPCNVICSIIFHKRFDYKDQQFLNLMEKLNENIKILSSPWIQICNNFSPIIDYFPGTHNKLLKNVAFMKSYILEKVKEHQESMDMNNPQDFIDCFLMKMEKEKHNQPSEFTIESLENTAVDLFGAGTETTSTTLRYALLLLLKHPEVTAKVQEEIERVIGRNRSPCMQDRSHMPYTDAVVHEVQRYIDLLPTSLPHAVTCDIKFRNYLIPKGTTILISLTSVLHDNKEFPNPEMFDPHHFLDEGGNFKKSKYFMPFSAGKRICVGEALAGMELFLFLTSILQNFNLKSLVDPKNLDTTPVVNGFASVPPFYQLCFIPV
Sequence of CYP2D6 (P10635 whole entry): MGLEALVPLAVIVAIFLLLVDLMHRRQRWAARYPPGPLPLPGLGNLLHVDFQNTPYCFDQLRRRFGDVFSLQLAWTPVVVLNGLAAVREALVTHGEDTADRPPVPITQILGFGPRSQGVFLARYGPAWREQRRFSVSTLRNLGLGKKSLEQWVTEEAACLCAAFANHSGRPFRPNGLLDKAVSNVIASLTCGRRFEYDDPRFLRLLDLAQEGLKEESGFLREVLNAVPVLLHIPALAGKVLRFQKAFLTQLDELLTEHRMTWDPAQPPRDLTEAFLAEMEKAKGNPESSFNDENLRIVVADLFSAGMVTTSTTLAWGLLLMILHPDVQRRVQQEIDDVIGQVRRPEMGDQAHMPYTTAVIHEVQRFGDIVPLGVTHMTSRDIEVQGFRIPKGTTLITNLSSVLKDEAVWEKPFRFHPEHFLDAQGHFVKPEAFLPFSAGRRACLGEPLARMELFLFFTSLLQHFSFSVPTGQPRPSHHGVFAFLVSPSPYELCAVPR
Description for CYP1A2: Inhibition of CYP1A2 (unknown origin) at 10 uM relative to control
Description for CYP2C19: Inhibition of CYP2C19 (unknown origin) at 10 uM relative to control
Description for CYP2C9: Inhibition of CYP2C9 (unknown origin) at 10 uM relative to control
Description for CYP2D6: Inhibition of CYP2D6 (unknown origin) at 10 uM relative to control

In turn, `CNC(=O)c1cnc2[nH]ccc2c1N[C@@H]1CCN(Cc2ccc(Cl)cc2)[C@H](C)C1` (relative stereo) [listing 1 of 2 here] showed an IC50 in [1] of 106 nM. In the data set “cells”, the GI50 is 5790 nM. The same compound returned a Papp A→B at 10 µM in “in vitro [2]” of 1.9 ×10⁻⁶ cm/s. In addition, the fraction remaining at 0.5 h, 10 µM was determined as 80.6% in the data set “in vitro [3]”, 11.6% in “in vitro [4]” and 28.2% in “in vitro [5]”. Moreover, the inhibition at 10 µM turned out to be 92.9% against CYP3A4; 77.1% on CYP2D6; 70% at CYP2C9; 75.7% at CYP2C19; 74.8% on CYP1A2. The amount remaining at 2 h, 2 µM in the data set “in vitro [6]” was more than 100%; in the data set “in vitro [7]” it was 92.6%. Also, in “in vitro [8]”, the Papp B→A at 10 µM amounted to 3.7 ×10⁻⁶ cm/s. The compound further came in with a 50% growth inhibitory concentration (GI50) at 48 h in “in vitro [9]” of more than 10000 nM.
As to `CNC(=O)c1cnc2[nH]ccc2c1N[C@@H]1CCN(Cc2ccc(Cl)cc2)[C@H](C)C1` (relative stereo) [listing 2 of 2 here], the values for the GI50 in data set [10], in data set [11] and in data set [12] were 10.5 nM, 1360 nM and 655 nM, respectively. Moreover, the inhibition entry in the data set with LX2 [13], in the data set on LX2 [14], in the data set with LX2 [15] and in the data set on LX2 [16] was “Active” each time.
`COc1cccc(CN2CCC(Nc3c(C(N)=O)cnc4[nH]ccc34)CC2)c1` came in with an IC50 in data set [17] of 195 nM.
For `CNC(=O)c1cnc2[nH]ccc2c1N[C@@H]1CCN(Cc2ccc(Cl)cc2)[C@H](C)C1`, the GI50 in data set [10] is 2950 nM; in data set [11], more than 10000 nM; in [12], more than 10000 nM.
On to `COc1cccc(CN2CC[C@@H](Nc3c(C(N)=O)cnc4[nH]ccc34)C[C@H]2C)c1` (relative stereo), for which the IC50 in data set [17] came out at 17.2 nM; in data set [18], 157 nM; in [19], 57.6 nM.
With `CNC(=O)c1cnc2[nH]ccc2c1NC1CCN(Cc2cccc(C#N)c2)CC1`, the IC50 was determined as 82 nM in [17], 710 nM in [18] and 759 nM in data set [19].
Regarding `CNC(=O)c1cnc2[nH]ccc2c1NC1CCCN(Cc2ccccc2)CC1` (centres undefined), the IC50 amounted to 276 nM in data set [18] and 89.3 nM in [19].
For the compound `CNC(=O)c1cnc2[nH]ccc2c1NC1CCN(Cc2ccc(OC)cc2)CC1`, the IC50 in data set [17] came out at 202 nM; in data set [19], 3540 nM.
As to `CNC(=O)c1cnc2[nH]ccc2c1N[C@@H]1CCN(Cc2cccc(Cl)c2)[C@@H](C)C1` (relative stereo), the results for the GI50 in data set [10], in [11] and in data set [12] were 232 nM, more than 10000 nM and 4750 nM, respectively.
As to `COc1cccc(CN2CCC(Nc3c(C(=O)NC4CC4)cnc4[nH]ccc34)CC2)c1`, the IC50 was 2960 nM in [17], more than 10000 nM in data set [18] and more than 10000 nM in [19].
For `CNC(=O)c1cnc2[nH]ccc2c1N[C@H]1CCN(Cc2ccc(Cl)cc2)[C@@H](C)C1`, the values for the concentration for 50% growth inhibition (GI50) in data set [10], in data set [11] and in data set [12] were 6.4 nM, 1140 nM and 475 nM, respectively.
Consider `COc1cccc(CN2CCC(Nc3c(C(=O)NC4CCCC4)cnc4[nH]ccc34)CC2)c1`, for which the IC50 in data set [17] is 3280 nM; in data set [18], more than 10000 nM; in data set [19], more than 10000 nM.
`CNC(=O)c1cnc2[nH]ccc2c1NC1CCN(c2ccccc2)CC1`: it took 160 nM to reach half-maximal inhibition in [17] (IC50).
With `CNC(=O)c1cnc2[nH]ccc2c1NC1CCCN(Cc2cccc(Cl)c2)CC1` (centres undefined), the 50% growth inhibitory concentration (GI50) in [10] is 476 nM; in [20], 7690 nM; in data set [11] it was more than 10000 nM; in data set [12], more than 10000 nM.
For the compound `C[C@@H]1C[C@H](Nc2c(C(N)=O)cnc3[nH]ccc23)CCN1Cc1cccc(Cl)c1` (relative stereo), the concentration for half-maximal inhibition (IC50) stood at 6.87 nM in data set [17], 48.4 nM in [18] and 93.8 nM in [19].
As to `CNC(=O)c1cnc2[nH]ccc2c1NC1CC2CCC(C1)N2Cc1ccc(Cl)cc1` (centres undefined), the GI50 came out at 1800 nM in data set [10], 3950 nM in data set [20], 3900 nM in data set [11] and 1710 nM in [12].
On to `CNC(=O)c1cnc2[nH]ccc2c1NC1CCCN(Cc2cccc(OC)c2)CC1` (centres undefined), for which the IC50 in [17] was 8.61 nM; in [18], 42.7 nM; in [19] it was 4.34 nM.
As to `O=C(NC1CCCC1)c1cnc2[nH]ccc2c1NC1CCN(Cc2ccccc2)CC1`, the IC50 in data set [17] was more than 10000 nM.
With `NC(=O)c1cnc2[nH]ccc2c1NC1CCN(Cc2ccccc2)CC1`, the concentration for half-maximal inhibition (IC50) in data set [18] turned out to be 110 nM.
Turning to `O=C(NC1CC1)c1cnc2[nH]ccc2c1NC1CCN(Cc2ccccc2)CC1`, the half-inhibitory concentration (IC50) turned out to be 114 nM in data set [17], 1350 nM in [18] and 232 nM in [19].
Turning to `CNC(=O)c1cnc2[nH]ccc2c1NC1CCN(Cc2cccc(OC)c2)CC1`, the IC50 in data set [17] was found to be 18 nM; in [18] it was 1210 nM; in [19] it was 469 nM.
On the same counts, the results for `CNC(=O)c1cnc2[nH]ccc2c1NC1CCN(Cc2ccccc2OC)CC1` are 406 nM, 4180 nM and 7060 nM.
On to `CC(=O)Nc1cc(Oc2ccc3c(c2)CCN3C(=O)Nc2ccc(CN3CCN(C)CC3)c(C(F)(F)F)c2)ncn1`, for which the GI50 in data set [10] stood at 129 nM; in [20], 409 nM; in data set [11] it was 451 nM; in [12], 150 nM.
Consider `CNC(=O)c1cnc2[nH]ccc2c1N[C@@H]1CCN(Cc2cccc(OC)c2)C[C@@H]1F` (relative stereo), for which the GI50 in data set [10] was 214 nM; in data set [12], 9650 nM.
`O=C(Nc1nc2cccc(-c3ccc(CN4CCS(=O)(=O)CC4)cc3)n2n1)C1CC1`: the GI50 in data set [10] is 798 nM; in [20] it was more than 10000 nM; in data set [11], more than 10000 nM; in [12], 7190 nM. Moreover, the inhibition result in the data set on LX2 [16] was “Active”.
For the compound `CNC(=O)c1cnc2[nH]ccc2c1NC1CCN(Cc2ccccc2)CC1`, the figures for the IC50 in data set [17] and in data set [18] were 65 nM and 586 nM, respectively.
For `CNC(=O)c1cnc2[nH]ccc2c1NC1CCN(Cc2ccc(OC)c(OC)c2)CC1`, the figures for the IC50 in data set [17] and in data set [19] were 8400 nM and more than 10000 nM, respectively.

The record behind these values is ChEMBL document CHEMBL4706658, “Discovery and Biological Evaluation of N-Methyl-pyrrolo[2,3-b]pyridine-5-carboxamide Derivatives as JAK1-Selective Inhibitors” (J Med Chem, 2021).
